Tested on: 253G1 cells
Assay: Rotary culture of 253G1 cells with RWV bioreactor in 10 mL vessel: spheroid formation and proliferation rate
Type: cell-based, human
Conditions: for Proliferation rate: 5 days, detached with 5 mM EDTA and TrypLE Select
Experimental: To perform three-dimensional culture, 253G1 cells to be seeded were detached into small spheroids (loose cell masses each having a diameter of approximately 50 μm to 200 μm) each consisting of 20 to 40 cells with 5 mM EDTA. The detached 4.9×10^5 253G cells (small spheroids obtained through chemical disrupting) were seeded in an mTeSR1 medium (10 mL) containing the ROCK (Rho-associated kinase) inhibitor Y27632 (Wako Pure Chemical Industries, Ltd., 10 μM) or an mTeSR1 medium (10 mL) free of the ROCK inhibitor Y27632 in a 10 mL RWV vessel (diameter: 5 cm; Synthecon, Incorporated), and rotary-cultured with an RWV bioreactor (Synthecon, Incorporated) at 37° C. and 8 rpm for 3 days. After culturing, a photograph of a phase contrast image of spherical spheroids produced in the culture medium was taken with the inverted microscope Axio Observer (Carl Zeiss) (FIG. 1). In addition, the diameter of each spherical spheroid was measured, and the size distribution was investigated (FIG. 2).
Subsequently, the spherical spheroids were collected, and disrupted by pipetting with a pipette to disperse the cells. The number of the cells was counted by using the automated cell counter, Countess™ (Invitrogen). From the total number of the cells in the culture medium, the proliferation rate relative to the number of the cells seeded (4.9×10^5 cells) was calculated (total number of cells/4.9×10^5 cells).
To determine a more suitable ROCK inhibitor concentration, 253G1 cells were rotary-cultured for 3 days under the same conditions as in the above except that three ROCK inhibitor concentrations (3 μM, 10 μM, or 30 μM) were used. After culturing, the number of spherical spheroids formed was 10 in the case of 3 μM, 50 in the case of 10 μM, and 20 in the case of 30 μM.
To determine a more suitable number of cells to be seeded, 253G1 cells detached into small spheroids each consisting of approximately 20 to 40 cells with 5 mM EDTA and TrypLE™ Select were seeded at 4.27×10^5, 8.55×10^5, or 1.28×10^6 cells in a 10 mL RWV vessel, and rotary-cultured for 5 days in an mTeSR1 medium containing or free of the ROCK inhibitor Y27632 (10 μM) by the same method as in the above (1). After culturing, the number of the cells was counted and the proliferation rate was calculated in the same manner as in the above.
Further, the 253G1 cells detached into small spheroids each consisting of approximately 20 to 40 cells with only 5 mM EDTA were seeded in a 10 mL RWV vessel at a number of cells seeded in the above preferred range, and rotary-cultured in a 10 μM ROCK inhibitor Y27632-containing mTeSR1 medium (10 mL) for 3 days.

[1] = 10 μM in mTeSR1, 4.9×10^5 cells seeded, 10 mL RWV vessel, 8 rpm, 3 days, detached with 5 mM EDTA
[2] = 1st run, 10 μM, 4.9 × 10^5 cells seeded, 10 mL vessel, 3 days, only 5 mM EDTA
[3] = 2nd run, 10 μM, 4.1 × 10^5 cells seeded, 10 mL vessel, 3 days, only 5 mM EDTA

C[C@@H](N)[C@H]1CC[C@H](C(=O)Nc2ccncc2)CC1.Cl.Cl.O (relative stereo) [Y27632, (R)-(+)-trans-N-(4-pyridyl)-4-(1-aminoethyl)-cyclohexanecarboxamide.2HClH2O]
Number of spherical spheroids formed (3 μM, 10 mL vessel, 3 days): 10
Proliferation rate (total number of cells / cells seeded) [1]: 6.5 fold
Total number of cells [1]: 3.1 × 10^6 cells
Total number of cells (10 μM in mTeSR1, 4.9×10^5 cells seeded, 10 mL RWV vessel, 8 rpm, 3 days, detached with 5 mM EDTA, listed as ROCK inhibitor): 3.1×10^6 cells
Proliferation rate (10 μM, 1.28 × 10^6 cells seeded/10 mL vessel): 1.43-fold
Proliferation rate (10 μM, 4.27 × 10^5 cells seeded/10 mL vessel): 4.78-fold
Formation of spherical spheroids (10 μM, 4.9×10^5 cells seeded, 10 mL vessel, 3 days, inhibitor-free medium gave no spheroids): numerous spherical spheroids were formed
Proliferation rate (10 μM, 8.55 × 10^5 cells seeded/10 mL vessel): 1.93-fold
Number of spherical spheroids formed (10 μM, 10 mL vessel, 3 days): 50
Proliferation rate versus ROCK inhibitor-free medium (10 μM, 10 mL vessel, experiment repeated a plurality of times): significantly increased
Number of spherical spheroids formed (30 μM, 10 mL vessel, 3 days): 20
Number of only cells of spheroids [2]: 2.4 × 10^6 cells
Number of spheroids [2]: approximately 130 spheroids
Proliferation rate of only cells of spheroids [2]: 4.9 fold
Number of only cells of spheroids [3]: 1.4 × 10^6 cells
Number of spheroids [3]: approximately 100 spheroids
Proliferation rate (total number of cells) [3]: 5.85 fold
Proliferation rate of only cells of spheroids [3]: 3.41 fold
Total number of cells [3]: 2.4 × 10^6 cells

Source: patent US10696951B2, “Method for culturing pluripotent stem cells” (JTEC Corporation, priority 2014, dated 2020)
